Legend:
OCI-AML3 cells [1] = experiment: Sensitivity of OCI-AML3 cells to Venetoclax/ABT-199; type: cell-based; details: Homo sapiens, OCI-AML-3
OPM2 cells = experiment: Cell viability (CellTiter-Glo) in OPM2 multiple myeloma cells; type: cell-based; details: 72 hours, compared to Venetoclax, FIG. 6
Method: (§1) To assess the effects of alvocidib or Venetoclax treatment on multiple myeloma cells, OPM2 cells were cultured in RPMI media supplemented with 10% FBS and penicillin/streptomycin. Cell viability was assessed in treated cells using the CellTiter-Glo reagent (Promega), according to manufacturer protocol. Cells were treated in 96-well plates for 72 hours, before being analyzed in a luminescence compatible plate reader. Curve fitting and analysis was performed using Graphpad Prism software.

[2] = tested on: MCL-1 expression in OCI-AML3 cells; experiment: MCL-1 expression in OCI-AML3 cells in vitro; type: cell-based; details: multiple time points after treatment, FIG. 4
Description: MCL-1 expression was decreased in OCI-AML3 cells at multiple time points following treatment with alvocidib (FIG. 4).

HEL cells = experiment: Cell viability (CellTiter-Glo) in HEL erythroleukemia cells; type: cell-based; details: 72 hours, compared to Venetoclax, FIG. 5
Method: as §1, with “leukemic” for “multiple myeloma”, “the erythroleukima cell line, HEL, was” for “OPM2 cells were”

OCI-AML3 cells [3] = experiment: In vivo tumor growth, immune deficient mice injected with OCI-AML3 cells; details: 2.5 mg/kg intraperitoneal, once a day for 21 days, by day 21, FIG. 3
Method: Alvocidib was used alone to test in vivo activity in OCI-AML3 cells. […] To test the in vivo activity, immune deficient mice injected with OCI-AML3 cells were treated with 2.5 mg/kg of alvocidib via intraperitoneal injection or 100 mg/kg of Venetoclax/ABT-199 per os (i.e., oral administration). Each treatment (i.e., alvocidib and Venetoclax/ABT-199) was administered once a day for 21 days.

[4] = tested on: MCL-1 expression in MV-4-11 cells; experiment: MCL-1 protein expression in MV-4-11 cells treated in vitro; type: cell-based
Method: MV-4-11 cells were treated with alvocidib in vitro, harvested and analyzed to probe for changes relative to controls. Additionally, other exemplary CDK9 inhibitors (i.e., palbociclib and dinaciclib) were evaluated, along with alvocidib.

[5] = in vivo; cited from earlier work

Question: For CC1(C)CCC(CN2CCN(c3ccc(C(=O)NS(=O)(=O)c4ccc(NCC5CCOCC5)c([N+](=O)[O-])c4)c(Oc4cnc5[nH]ccc5c4)c3)CC2)=C(c2ccc(Cl)cc2)C1 [Venetoclax], which EC50 (OCI-AML3 cells [1]) is on record?
Answer: The EC50 was 2.33 µM.

Question: Which cell viability (OPM2 cells) does the source give for CN1CC[C@H](c2c(O)cc(O)c3c(=O)cc(-c4ccccc4Cl)oc23)[C@H](O)C1 [alvocidib] here?
Answer: The cell viability was “inhibition of cell viability”.

Question: What about the MCL-1 expression [2] of the same molecule?
Answer: Its MCL-1 expression is “decreased”.

Question: What about the cell viability (HEL cells) of the same molecule?
Answer: Its cell viability is “inhibition of cell viability”.

Question: And the “reduction in tumor growth” value (OCI-AML3 cells [3])?
Answer: Its value is 50%.

Question: And the MCL-1 expression ([4]; 24 hour treatment, FIG. 2)?
Answer: The MCL-1 expression was “decreased MCL-1 expression”.

Question: What about the “impact on MCL-1 protein levels compared with the other CDK9 inhibitors” value ([4]; 24 hour treatment, FIG. 2) of the same molecule?
Answer: The value was “strongest impact on MCL-1 protein levels”.

Question: What about the “MCL-1 expression relative to controls” value ([4]; alvocidib 0-8 μM, FIG. 1) of the same molecule?
Answer: The value was “decreases MCL-1 expression in MV-4-11 in a dose dependent manner”.

Question: With CC1(C)CCC(c2ccc(Cl)cc2)=C(CN2CCN(c3ccc(C(=O)NS(=O)(=O)c4ccc(N[C@H](CCN5CCOCC5)CSc5ccccc5)c(S(=O)(=O)C(F)(F)F)c4)cc3)CC2)C1 [navitoclax] as the molecule, how does the toxicity [5] read?
Answer: The toxicity was “toxic due to thrombocytopenia”.
